For the assay, the target named is T1, human Werner helicase (WRN-BV08, Uniprot Q14191, amino acids 517-1235 with L1074F point mutation) (Homo sapiens, UniProt Q14191, L1074F).
T1 construct: Uniprot Q14191, amino acids 517-1235 with L1074F point mutation; TEV-cleavable 8×His (C, cleaved yes); made in house; host or cells: Sf9 insect cells (baculovirus)
T1 sequence (Q14191 with tags, fused parts or gaps L1074F limits assumed): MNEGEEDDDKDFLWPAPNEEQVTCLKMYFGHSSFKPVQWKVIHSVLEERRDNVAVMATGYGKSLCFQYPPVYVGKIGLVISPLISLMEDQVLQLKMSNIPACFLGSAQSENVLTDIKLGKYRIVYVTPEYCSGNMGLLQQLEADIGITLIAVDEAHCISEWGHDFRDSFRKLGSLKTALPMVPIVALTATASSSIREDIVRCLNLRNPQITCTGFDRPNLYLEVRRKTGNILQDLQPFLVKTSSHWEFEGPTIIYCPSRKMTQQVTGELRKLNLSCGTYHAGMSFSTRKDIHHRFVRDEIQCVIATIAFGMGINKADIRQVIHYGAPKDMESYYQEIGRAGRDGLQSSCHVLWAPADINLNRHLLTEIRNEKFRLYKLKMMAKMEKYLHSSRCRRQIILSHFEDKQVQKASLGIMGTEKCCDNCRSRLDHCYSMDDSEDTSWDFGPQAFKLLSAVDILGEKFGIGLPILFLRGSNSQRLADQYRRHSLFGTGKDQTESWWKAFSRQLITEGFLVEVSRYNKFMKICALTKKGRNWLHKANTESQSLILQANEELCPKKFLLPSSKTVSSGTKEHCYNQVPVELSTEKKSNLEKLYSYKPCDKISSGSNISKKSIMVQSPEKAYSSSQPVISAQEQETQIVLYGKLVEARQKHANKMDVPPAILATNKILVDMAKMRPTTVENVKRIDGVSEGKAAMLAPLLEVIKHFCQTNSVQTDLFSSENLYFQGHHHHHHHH
Nature of the assay: WRN (BV08) ADP-Glo Assay. Format: biochemical. Particulars: 0.15 nM WRN, 5 μM ATP, 0.1 nM DNA duplex, 15 min preincubation, 60 min at 25° C., pH 7.5, 1% DMSO; read-out: ADP-Glo_hWRN_IC50. The gist of the method: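 Percent inhibition was normalised to DMSO (max) and 20 μM NSC-617145 (min) controls from ADP-Glo luminescence, and IC50 values came from a four-parameter fit. The reaction ran 60 min at 25 °C with 0.15 nM WRN, 5 μM ATP and 0.1 nM duplex DNA.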
In the case of `COc1cc(CN(C(=O)C(C(=O)N(C)CC2CC(F)(F)C2)c2ccc(-c3ccc(F)c(F)c3)cc2F)[C@@H]2C=CS(=O)(=O)C2)ccn1` (stereo partly drawn) [I-822, N-[(3,3-difluorocyclobutyl)methyl]-N′-[(3R)-1,1-dioxo-2,3-dihydro-1lambda6-thiophen-3-yl]-N′-[(2-methoxypyridin-4-yl)methyl]-N-methyl-2-{3,3′,4′-trifluoro-[1,1′-biphenyl]-4-yl}propanediamide], the IC50 was less than 0.5 µM.

As to `O=C(C1Cc2cc(-n3cccc3)ccc2O1)N(Cc1ccncc1)C1C=CS(=O)(=O)C1` (stereo not drawn) [I-244, N-(1,1-dioxo-2,3-dihydro-1lambda6-thiophen-3-yl)-N-[(pyridin-4-yl)methyl]-5-(1H-pyrrol-1-yl)-2,3-dihydro-1-benzofuran-2-carboxamide], the IC50 was in the range of 5 to 10 µM.

Take `O=C(Cn1cc(-c2ccc(F)c(F)c2)cn1)N(Cc1ccnc(N2CCC2)c1)C1C=CS(=O)(=O)C1` (stereo not drawn) [I-760, N-{[2-(azetidin-1-yl)pyridin-4-yl]methyl}-2-[4-(3,4-difluorophenyl)-1H-pyrazol-1-yl]-N-(1,1-dioxo-2,3-dihydro-1lambda6-thiophen-3-yl)acetamide]: the IC50 is less than 0.5 µM.

`COc1cc(CN(C(=O)Cn2ccc(-c3ccc(F)cc3)cc2=O)[C@@H]2C=CS(=O)(=O)C2)ccn1` [I-660, N-[(3R)-1,1-dioxo-2,3-dihydro-1lambda6-thiophen-3-yl]-2-[4-(4-fluorophenyl)-2-oxo-1,2-dihydropyridin-1-yl]-N-[(2-methoxypyridin-4-yl)methyl]acetamide]: the IC50 was less than 0.5 µM.

For `N#Cc1cc(-n2cccc2)ccc1CC(=O)N(Cc1ccncc1)C1C=CS(=O)(=O)C1` (stereo not drawn) [I-468, 2-[2-cyano-4-(1H-pyrrol-1-yl)phenyl]-N-(1,1-dioxo-2,3-dihydro-1lambda6-thiophen-3-yl)-N-[(pyridin-4-yl)methyl]acetamide], the IC50 was greater than 50 µM.

With `O=C(Cn1cc(-c2cc(F)c(F)c(F)c2)cn1)OCC1(c2csc(CNC3C=CS(=O)(=O)C3)n2)CC1` (stereo not drawn) [I-823, [1-(2-{[(1,1-dioxo-2,3-dihydro-1lambda6-thiophen-3-yl)amino]methyl}-1,3-thiazol-4-yl)cyclopropyl]methyl 2-[4-(3,4,5-trifluorophenyl)-1H-pyrazol-1-yl]acetate], the IC50 was greater than 50 µM.

Turning to `O=C(CCCC[C@@H]1SC[C@@H]2NC(=O)N[C@@H]21)NCCOCCOCCOCCOCCOCCOCCC(=O)N1CCN(Cc2ccc(CN(C(=O)Cc3ccc(-n4cccc4)cc3F)C3C=CS(=O)(=O)C3)cc2)CC1` (stereo partly drawn) [II-4, 5-[(3aS,4S,6aR)-2-oxo-hexahydro-1H-thieno[3,4-d]imidazol-4-yl]-N-(21-{4-[(4-{[N-(1,1-dioxo-2,3-dihydro-1lambda6-thiophen-3-yl)-2-[2-fluoro-4-(1H-pyrrol-1-yl)phenyl]acetamido]methyl}phenyl)methyl]piperazin-1-yl}-21-oxo-3,6,9,12,15,18-hexaoxahenicosan-1-yl)pentanamide], the IC50 lay in the range of 10 to 50 µM.

For `O=C(C1Cc2cc(-c3ccc(F)cc3)ccc21)N(Cc1ccncc1)C1C=CS(=O)(=O)C1` (stereo not drawn) [I-249, N-(1,1-dioxo-2,3-dihydro-1lambda6-thiophen-3-yl)-3-(4-fluorophenyl)-N-[(pyridin-4-yl)methyl]bicyclo[4.2.0]octa-1(6),2,4-triene-7-carboxamide], the IC50 lay within 5 to 10 µM.

With `CC(C)(C)OC(=O)NC(C(=O)N(Cc1ccccc1)C1C=CS(=O)(=O)C1)c1ccc(-n2cccc2)cc1` (stereo not drawn) [I-535, tert-butyl N-{[benzyl(1,1-dioxo-2,3-dihydro-1lambda6-thiophen-3-yl)carbamoyl][4-(1H-pyrrol-1-yl)phenyl]methyl}carbamate], the IC50 was greater than 50 µM.

For the molecule `O=C(Cc1ccc(-n2cccn2)cc1)N(Cc1ccncc1)C1C=CS(=O)(=O)C1` (stereo not drawn) [I-419, N-(1,1-dioxo-2,3-dihydro-1lambda6-thiophen-3-yl)-2-[4-(1H-pyrazol-1-yl)phenyl]-N-[(pyridin-4-yl)methyl]acetamide], the IC50 was greater than 50 µM.

Consider `O=C(Cc1ccc(-n2cccc2)cc1)N(Cc1ccnc(OC(F)F)c1)C1C=CS(=O)(=O)C1` (stereo not drawn) [I-215, N-{[2-(difluoromethoxy)pyridin-4-yl]methyl}-N-(1,1-dioxo-2,3-dihydro-1lambda6-thiophen-3-yl)-2-[4-(1H-pyrrol-1-yl)phenyl]acetamide], for which the IC50 lay within 0.5 to 5 µM.

As to `CN(C)C(=O)C(C(=O)N(Cc1ccncc1)C1C=CS(=O)(=O)C1)c1ccc(Br)cc1` (stereo not drawn) [I-474, 2-(4-bromophenyl)-N′-(1,1-dioxo-2,3-dihydro-1lambda6-thiophen-3-yl)-N,N-dimethyl-N′-[(pyridin-4-yl)methyl]propanediamide], the IC50 was greater than 50 µM.

With `CC(=O)N(C)C(C(=O)N(Cc1ccncc1)C1C=CS(=O)(=O)C1)c1ccc(-c2ccc(F)cc2)cc1` (single isomer, unassigned) [I-282], the IC50 fell in the range of 10 to 50 µM.

Regarding `CC(C)(O)c1cc(CN(C(=O)C(c2ccc(-c3ccc(F)c(F)c3)cc2F)n2ccnn2)C2C=CS(=O)(=O)C2)ccn1` (single isomer, unassigned) [I-802, (2R*)-N-[(3R**)-1,1-dioxo-2,3-dihydro-1lambda6-thiophen-3-yl]-N-{[2-(2-hydroxypropan-2-yl)pyridin-4-yl]methyl}-2-(1H-1,2,3-triazol-1-yl)-2-{3,3′,4′-trifluoro-[1,1′-biphenyl]-4-yl}acetamide], the IC50 fell in the range of 0.5 to 5 µM.

Regarding `COC(C(=O)N(Cc1ccncc1)C1C=CS(=O)(=O)C1)c1ccc(-c2ccc(F)cc2)cc1` (single isomer, unassigned) [I-575, (2R*)-N-[(3R**)-1,1-dioxo-2,3-dihydro-1lambda6-thiophen-3-yl]-2-{4′-fluoro-[1,1′-biphenyl]-4-yl}-2-methoxy-N-[(pyridin-4-yl)methyl]acetamide], the IC50 is greater than 50 µM.

Turning to `COc1cc(CN(C(=O)Cc2ccc(S(F)(F)(F)(F)F)cc2)[C@@H]2C=CS(=O)(=O)C2)ccn1` [I-17, N-[(3R)-1,1-dioxo-2,3-dihydro-1lambda6-thiophen-3-yl]-N-[(2-methoxypyridin-4-yl)methyl]-2-[4-(pentafluoro-lambda6-sulfanyl)phenyl]acetamide], the IC50 is less than 0.5 µM.

As for `O=C(C(c1ccc(-c2ccc(F)c(F)c2)cc1F)n1cccn1)N(Cc1ccncc1)C1C=CS(=O)(=O)C1` (stereo not drawn) [I-48, N-(1,1-dioxido-2,3-dihydrothiophen-3-yl)-2-(1H-pyrazol-1-yl)-N-(pyridin-4-ylmethyl)-2-(3,3′,4′-trifluoro-[1,1′-biphenyl]-4-yl)acetamide], the IC50 was less than 0.5 µM.

With `COC(C(=O)N(Cc1ccnc(C(C)(C)O)c1)C1C=CS(=O)(=O)C1)c1ccc(-c2ccc(F)c(F)c2)cc1F` (stereo not drawn) [I-18, N-(1,1-dioxo-2,3-dihydro-1lambda6-thiophen-3-yl)-N-{[2-(2-hydroxypropan-2-yl)pyridin-4-yl]methyl}-2-methoxy-2-{3,3′,4′-trifluoro-[1,1′-biphenyl]-4-yl}acetamide], the IC50 was less than 0.5 µM.

Consider `Cc1ccn(-c2ccc(CC(=O)N(Cc3ccncc3)C3C=CS(=O)(=O)C3)cc2)c1` (stereo not drawn) [I-355, N-(1,1-dioxo-2,3-dihydro-1lambda6-thiophen-3-yl)-2-[4-(3-methyl-1H-pyrrol-1-yl)phenyl]-N-[(pyridin-4-yl)methyl]acetamide], for which the IC50 was in the range of 10 to 50 µM.

For the molecule `Cc1ccc(-c2ccc(CC(=O)N(Cc3ccncc3)C3C=CS(=O)(=O)C3)cc2)cc1` (stereo not drawn) [I-470, N-(1,1-dioxo-2,3-dihydro-1lambda6-thiophen-3-yl)-2-{4′-methyl-[1,1′-biphenyl]-4-yl}-N-[(pyridin-4-yl)methyl]acetamide], the IC50 was greater than 50 µM.

With `CC(C)(O)c1cc(CN(C(=O)Cn2ncc(-c3cc(F)c(F)c(F)c3)c2Cl)C2C=CS(=O)(=O)C2)ccn1` (single isomer, unassigned) [I-773], the IC50 was less than 0.5 µM.

Turning to `O=C(Cn1cc(-c2ccccc2)cn1)N(Cc1ccncc1)C1C=CS(=O)(=O)C1` (stereo not drawn) [I-186, N-(1,1-dioxo-2,3-dihydro-1lambda6-thiophen-3-yl)-2-(4-phenyl-1H-pyrazol-1-yl)-N-[(pyridin-4-yl)methyl]acetamide], the IC50 was in the range of 0.5 to 5 µM.

Regarding `O=C(c1ccc(CN(C(=O)Cc2ccc(-c3ccc(F)c(F)c3)cc2F)C2C=CS(=O)(=O)C2)cc1)N1CCCCC1` (stereo not drawn) [I-796, N-(1,1-dioxo-2,3-dihydro-1lambda6-thiophen-3-yl)-N-{[4-(piperidine-1-carbonyl)phenyl]methyl}-2-{3,3′,4′-trifluoro-[1,1′-biphenyl]-4-yl}acetamide], the IC50 lay within 0.5 to 5 µM.

Take `COc1ccccc1CN(C(=O)Cc1ccc(-n2cccc2)cc1)C1C=CS(=O)(=O)C1` (stereo not drawn) [I-524, N-(1,1-dioxo-2,3-dihydro-1lambda6-thiophen-3-yl)-N-[(2-methoxyphenyl)methyl]-2-[4-(1H-pyrrol-1-yl)phenyl]acetamide]: the IC50 was greater than 50 µM.

Regarding `O=C(C1Cc2ccc(Cl)cc21)N(Cc1ccncc1)C1C=CS(=O)(=O)C1` (stereo not drawn) [I-650, 4-chloro-N-(1,1-dioxo-2,3-dihydro-1lambda6-thiophen-3-yl)-N-[(pyridin-4-yl)methyl]bicyclo[4.2.0]octa-1,3,5-triene-7-carboxamide], the IC50 is greater than 50 µM.

As for `COc1cc(CN(C(=O)C(OCc2cnn(C)c2)c2ccc(-c3ccc(F)c(F)c3)cc2F)[C@@H]2C=CS(=O)(=O)C2)ccn1` (stereo partly drawn) [I-745, N-[(3R)-1,1-dioxo-2,3-dihydro-1lambda6-thiophen-3-yl]-N-[(2-methoxypyridin-4-yl)methyl]-2-[(1-methyl-1H-pyrazol-4-yl)methoxy]-2-{3,3′,4′-trifluoro-[1,1′-biphenyl]-4-yl}acetamide], the IC50 lay within 0.5 to 5 µM.

Take `O=C([C@H]1C[C@@H](c2ccccc2)C1)N(Cc1ccncc1)C1C=CS(=O)(=O)C1` (stereo partly drawn) [I-611, (1s,3s)-N-(1,1-dioxo-2,3-dihydro-1lambda6-thiophen-3-yl)-3-phenyl-N-[(pyridin-4-yl)methyl]cyclobutane-1-carboxamide]: the IC50 is greater than 50 µM.
